Experimental data published in patent publication US8188149B2, “Use of R(+)-N-propargy1-1-aminoindan to treat or prevent hearing loss” (Teva Pharmaceutical Industries, Ltd., priority 2007, dated 2012).
Like-named read-outs stand apart in the source and are kept apart here.

Columns and labels:
[1] = system: neomycin-induced hearing loss; conditions: mice
Description: Left ears were left for vehicle control (NaCl injection). […] Click stimulations to the ear including various frequencies were used to evoke the auditory response in the brainstem that was measured by multiple electrodes placed on the head of the animal.

[2] = system: dopamine release from the guinea pig cochlea preparation
Description: The bulla tympani of a male guinea pig (weighing 150-350 g) was opened. The bony capsule of the cochlea was removed under stereomicroscopic guidance and the stria vascularis was stripped and the cochlea was fractured at the basis of the modiolus. The preparation contained the ganglion spirale, the afferent auditory fibers, the axons and axon terminals of the efferent bundles and both the inner and outer hair cells. All experiments were carried out in a perilimph-like solution, which contained […], 3.5 mM KCl, 1 mM CaCl2, 1 mM MgCl2, 2.75 mM HEPES and 2.25 mM Tris-OH at the temperature of 37° C. and pH 7.4. The osmolality was set by D-glucose and continuously saturated by 100% O2.
The cochleae were incubated with 0.2 μM [3H]dopamine (Amersham, UK, spec. act.: 31.0 Ci/mmol, 6 μCi in 1 ml) for 35 min. Each cochlea was then placed in a microvolume plexi chamber and superfused at 3 ml/min with perilymph-like solution. After 1 hour pre-perfusion the outflow was collected into 3 min-fractions. The released activity was determined by assaying […] of each sample with liquid scintillation spectrometry (Packard Tri-Carb 1900TR). After collecting samples for 57 minutes (19 fractions) each cochlea was transferred from the microchambers to 500 μl of 10% trichloroacetic acid for one day and 100 μl was assayed for tissue radioactivity. […] Electrical field stimulation was applied for one fraction period (3 min, 360 pulses) at 60 V, 2 Hz and 0.5 ms duration at the 3rd and 13th fractions. The pulses were delivered by a Grass S88 stimulator (West Warwick, USA) through platinum electrodes at the top and bottom of the tissue chamber.
To best describe the release of dopamine during one collecting period, the fractional release (FR) of the tritium-outflow was determined as the percentage of total radioactivity present in the tissue at the time of sample collection. The fractional release evoked by field stimulations (S1 and S2) was calculated by the area-under-the-curve, i.e., by subtracting the mean of the basal release from the total fractional release during the electrical stimulation (Halmos G, Gáborján A, Lendvai B, Répássy G, Z Szabó L, Vizi E S, (2000) Veratridine-evoked release of dopamine from guinea pig isolated cochlea. Hear Res 144: 89-96, Halmos G, Lendvai B, Gáborján A, Baranyi M, Z Szabó L, Csokonai Vitéz L, (2002) Simultaneous measurement of glutamate and dopamine release from isolated guinea pig cochlea. Neurochem Int 40: 243-248). The effects of drugs on the field stimulation-evoked [^3H]dopamine release were expressed by the calculated ratio of FRS2 over FRS1, in the presence and in the absence of the drug, respectively. The effect of drugs on the resting outflow of tritium was determined as the ratio of the sum of the two highest consecutive resting FR values in the presence of the drug and before the drug reached the cochleae (FRR2/FRR1). Data are expressed as the means±S.E.M. ANOVA was used for statistical analysis. Tukey post-hoc test was applied to determine the significance of pair wise comparisons.

[3] = system: neomycin-induced hearing loss; conditions: guinea pigs
Description: Guinea pigs weighing 250-300 g were used in all experiments. All interventions (including ABR measurements and intratympanic treatments) are performed under general anesthesia using i.p. injection of a cocktail of Ketamine and Xylazine.
A loudspeaker is placed in each ear and the ABR responses were detected by four surface electrodes. These electrodes are placed two in the mastoid region and one in vertex as positive and fourth electrode was placed on forehead as the ground electrode. Calibrated acoustic signals are obtained to evoke brainstem response. The visual detection threshold is determined by decrement sound pressure in 5 dB steps. The evoked responses are then filtered and averaged with 500 sweeps using a signal processor. All ABR tests are performed bilaterally and baseline Peak Equivalent Sound Pressure Levels (PESPLs) are obtained in terms of decibel (dB). All animals undergo baseline hearing test (ABR) before any kind of treatment in order to rule out previous hearing loss. Control ABR threshold measurements are compared to pretreatment values. Auditory threshold shift is subjected to statistical analysis, statistical significance is determined.
A fine needle is used for myringotomy and drugs are delivered through the same needle. The whole middle ear is filled until the fluid can be seen in the external auditory canal. […] Concentration is calculated using this volume. […]

## C#CCN[C@@H]1CCc2ccccc21 [Rasagiline, R(+)-N-propargyl-1-aminoindan]
[1]; 0.5 mg Rasagiline intratympanically together with neomycine
  hearing threshold compared to threshold prior to neomycine treatment: remained unchanged
[1]; intraperitoneally 50 mg/kg daily, day of neomycine treatment and next three days
  protection against ototoxic effect of neomycine: could not prevent
[2]; 100 μM Rasagiline
  field stimulation-evoked dopamine release (FRS2/FRS1): increase was significant
[2]; 100 μM, 3-21 min perfusion
  evoked dopamine release, all timing groups vs control: significant enhancement
[2]; 100 μM, longest duration, 21 minutes prior to stimulation
  resting release of dopamine (FRR2/FRR1): failed to induce significant differences
[2]; 300 μM Rasagiline
  field stimulation-evoked dopamine release (FRS2/FRS1): increase was significant
[2]; 1-300 μM, FIG. 2
  effect on dopamine release, concentration dependence: concentration dependent
[2]; higher doses (of 1, 10, 100, 300 μM), added 15 min prior to second field stimulation
  cochlear DA release: elevate
[2]; low concentration (of 1, 10, 100, 300 μM), added 15 min prior to second field stimulation
  cochlear dopamine release: did not change
[3]; Rasagiline intratympanically together with neomycine
  hearing threshold compared to threshold prior to neomycine treatment: remains unchanged
[3]; intraperitoneally on day of neomycine treatment and next three days
  protection against ototoxic effect of neomycine: can not prevent
